In patent publication US20180243421A1, “IMMUNOSTIMULATING AGENT” (AJINOMOTO CO., INC., priority 2015, published 2018):

Assays:
[1] = Dispersibility study: turbidity in cyclodextrin-added saline; format: physicochemical; conditions: Example 11; SZ62 0.256 μmol in 1 mL; absorbance 650 nm, ratio to kaolinite
Description: N-hexadecanoylagmatine (SZ62: compound wherein group corresponding to R^7 in formula (II) is C15 alkyl group) (0.256 μmol) was separated in a 2 mL tube containing zilconia beads, 1 mL of 5% αCD-added saline or 10% 2-hydroxypropyl-β-cyclodextrin (hereinafter to be also simply referred to as HP-β-CD)-added saline was added and the mixture was stirred. Thereafter, the absorbance (OD Value=650 nm) was measured by a microplate reader, and the turbidity was calculated as an index of dispersibility. The measurement method of the turbidity was as follows.
Measurement Method of Turbidity
SZ62 (0.256 μmol) was dispensed to a 2 mL tube containing zirconia beads, 5% αCD-added saline or 10% HP-β-CD-added saline (1 mL) was added, and the mixture was vigorously stirred three times under conditions of one time for 3.15 seconds at 6000 rpm. The mixture was dispensed by 200 μL to a 96 well plate, and the absorbance (OD Value=650 nm) was measured by a microplate reader. As a control, kaolinite (1 mg) was dissolved in distilled water (1 L), and the absorbance (OD Value=650 nm) was measured by a microplate reader. The absorbance thereof (OD Value=650 nm) was defined to be turbidity: 1, and the turbidity of each sample was calculated from the ratio with the measured value of kaolinite.

IL-4 = assay: Th2 response: IL-4 production from lymph node cells of immunized mice restimulated with OVA; format: in vivo, BALB/c mice; conditions: Example 10; s.c. OVA 10 μg + 0.256 μmol in 5% αCD saline (Addavax 1:1); groin lymph node ten days later; 0.1-100 μg OVA, 40 hr, ELISA
Description: (§1) Ten days later, groin lymph node was collected from all mice of the above-mentioned (1) to (4), lymph node cells were isolated and cultured in 10% FBS-containing RPMI1640 medium. Thereto was added 0.1 μg, 1 μg, 10 μg, 100 μg of OVA, respectively, 40 hr later, cell supernatant was recovered, and IFN-γ and IL-4 in the supernatant were measured by ELISA.

[2] = tested on: anti-influenza IgA antibody; assay: Transnasal influenza vaccine adjuvant activity: anti-influenza IgA antibody in nasal cavity wash; format: in vivo, BALB/c mice; conditions: Example 4, influenza HA vaccine 20 μl, SZ62 1 μg, Poly(I:C) 5 μg, two weeks from secondary immunization
IFN-γ = assay: Th1 response: IFN-γ production from lymph node cells of immunized mice restimulated with OVA; format: in vivo, BALB/c mice; conditions: Example 10; s.c. OVA 10 μg + 0.256 μmol in 5% αCD saline (Addavax 1:1); groin lymph node ten days later; 0.1-100 μg OVA, 40 hr, ELISA
Description: as §1

[3] = tested on: anti-OVA-specific IgG1 subclass antibody; assay: Adjuvant activity: anti-OVA-specific IgG1 subclass antibody in serum after secondary immunization (Examples 1, 5, 7, 8; ELISA absorbance); format: in vivo, BALB/c mice
Method in brief: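 Serum was taken two weeks after the secondary immunization and assayed by ELISA on plates coated with 5 μg/ml OVA. Detection used biotinylated anti-mouse IgG1, then anti-biotin-HRP and TMB. The reaction was stopped with 2N H2SO4 and read as absorbance at 450 nm.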

CCCCCCCCCCCCCCCC(=O)NC(=N)NCCCCN [SZ62, N-hexadecanoylagmatine]
turbidity after addition of 10% HP-β-CD-added saline and stirring, versus turbidity after addition of 5% αCD-added saline [1]: significantly lower
IL-4 production from lymph node cells (IL-4): did not show an increase
anti-influenza IgA antibody production in nasal cavity wash as compared to the influenza vaccine single administration group [2]: significantly increased
IFN-γ production from lymph node cells (IFN-γ): increased in an OVA volume dependent manner
anti-OVA-specific IgG1 subclass antibody production as compared to the OVA single administration group ([3]; Example 1, dorsal-subcutaneous, OVA 10 μg, SZ62 0.256 μmol in 5% αCD saline, Alum 2.56 μmol, serum two weeks from secondary immunization): significantly increased
adjuvant activity (IgG1) compared with Alum ([3]; Example 1, same test as E1): equivalent to that of Alum
adjuvant activity (IgG1) compared with Alum ([3]; Example 5): equivalent to or not less than that of Alum
anti-OVA-specific IgG1 subclass antibody production as compared to the OVA single administration group ([3]; Example 5, same manner as Example 1): significantly increased
adjuvant activity (IgG1) compared with Alum ([3]; Example 8): equivalent to or not less than that of Alum
anti-OVA-specific IgG1 subclass antibody production as compared to the OVA single administration group ([3]; Example 8, same manner as Example 7): significantly increased
